The values that follow come from patent US20040208828A1, “Enantiomer-pure (4S,8S)- and (4R,8R)-4-p-nitrobenzyl-8-methyl-3,6,9-triaza-3N,6N,9N-tricarboxymethyl-1,11-undecanedioic acid and derivatives thereof, process for their production and use for the production of pharmaceutical agents” (priority 2003, published 2004).

The conditions of series [1]: McMurry et al., J. Med. Chem. (1998), 41, 3546-3549; cited from earlier work.
The conditions of series [2]: compared to the unsubstituted DTPA; cited from earlier work.
Series [3] in a line: thermodynamic stability constant of the metal complex (logKY). In kind it is physicochemical. The following applies: in vitro. The text has this:
(§1) In this case, as was discovered, the configuration of methyl- and benzyl substituent must be present as (4S,8S) (see compound Va) or (4R,8R) (see compound Vb) to achieve the described positive effect.

Series [4] can be described thus: competition complexation: mixture of one equivalent each of Va, VIa and Gd(III) salt. The following applies: one equivalent each of Va (R=-NO2). Type of series: physicochemical.
From the text: as §1

The nature of series [5]: radiotoxicity of the metal complex in vivo. The following applies: compared to compound VIa.
From the text: as §1

A short description of series [6]: complex stability / complexing properties, comparison of stereoisomers. Type of series: physicochemical. The following applies: comparison of configurations (4S,8S)/(4R,8R) with (4S,8R)/(4R,8S).
From the text: as §1

For `O=C(O)CN(CC(=O)O)[C@H](Cc1ccc([N+](=O)[O-])cc1)CN(CC(=O)O)[C@@H]1CCCC[C@H]1N(CC(=O)O)CC(=O)O` [II], in series [1], the “in-vitro and in-vivo stability” value was “higher in-vitro and in-vivo stability than compound III”.

In the case of `CC(CN(CC(=O)O)C[C@H](Cc1ccc([N+](=O)[O-])cc1)N(CC(=O)O)CC(=O)O)N(CC(=O)O)CC(=O)O` (stereo partly shown) [MX-DTPA], in series [2], the “complex stability (in words)” value is “increased complex stability compared to the unsubstituted DTPA”.

For the compound `C[C@@H](CN(CC(=O)O)C[C@H](Cc1ccc([N+](=O)[O-])cc1)N(CC(=O)O)CC(=O)O)N(CC(=O)O)CC(=O)O` [Va], the “thermodynamic stability constant logKY” value in series [3] was determined as 24.7±0.7. The “Gd complex formed in competition” value in series [4] was “almost exclusively the Gd complex of compound Va is formed”. Besides, in series [5], the “radiotoxicity of the metal complex” value is given as “reduced in vivo compared to compound VIa”. Also, the “complex stability / complexing properties (in words)” value in series [6] is “considerably better complexing properties than compounds VIa and VIb”.

For the compound `C[C@H](CN(CC(=O)O)C[C@@H](Cc1ccc([N+](=O)[O-])cc1)N(CC(=O)O)CC(=O)O)N(CC(=O)O)CC(=O)O` [Vb, (R,R)-{[2-{[2-(Bis-carboxymethyl-amino)-propyl]-carboxymethyl-amino}-1-(4-nitro-benzyl)-ethyl]-carboxymethyl-amino}-acetic acid], the “complex stability / complexing properties (in words)” value in series [6] was “considerably better complexing properties than compounds VIa and VIb”.
